Measured values reported in patent publication US7087622B2, “Pyridone compounds as inhibitors of bacterial type III protein secreation systems” (priority 2004, dated 2006).

Experiments:
Assay type in all cases: cell-based
[1] = test system: SPI1 type III protein secretion system (SopE-Bla secretion); experiment: Primary assay: Type III protein secretion of the chimeric SopE-Bla polypeptide by Salmonella enterica (nitrocefin hydrolysis); details: read-out: SopE IC50(uM)
Excerpt: Primary assay: Type III protein secretion of the chimeric SopÉ-Bla polypeptide by Salmonella enterica. This procedure is a cell-based assay that measures the type III-dependent secretion by Salmonella enterica of a plasmid-encoded chimeric polypeptide whose synthesis can be regulated, and which is endowed with an enzymatic activity that can be monitored calorimetrically by hydrolysis of a substrate that is unable to penetrate into the bacterial cytoplasm within the time constraints of the reaction. Thus, the colorimetric reaction is not influenced by SopÉ-Bla polypeptide in the bacterial cytoplasm. Instead, it effectively measures the amount of polypeptide that has been secreted from the S. enterica cytoplasm to the extracellular medium via type III system protein secretion.
The SopÉ-Bla recombinant polypeptide consists of two functionally distinct domains spliced together. The N-terminus domain is encoded by a polynucleotide region specifying the signal for type III secretion of the SopE polypeptide of S. enterica, an effector of the SPI1 type III protein secretion system. The C-terminus domain of SopÉ-Bla consists of a 263 amino acid peptide sequence that corresponds to the TEM-1 β-lactamase expressed by plasmid pBR322 but without its N-terminal signal sequence. The TEM-1 β-lactamase part of the SopÉ-Bla chimeric polypeptide is used as a reporter enzyme. It is capable of hydrolyzing nitrocefin resulting in a product whose accumulation can be monitored by colorimetric detection. The secretion of the SopÉ-Bla chimeric polypeptide from the cytoplasm to the extracellular medium is dependent on type III protein secretion.
For this procedure, cells grown under conditions known to favor a functional SPI1 secretion system are induced for expression of the SopÉ-Bla protein and grown either in the presence or in the absence of putative inhibitors for determined time. Nitrocefin is then added to the various cultures and its hydrolysis are used for quantitation. An inhibitor of Type III protein secretion is generally a compound that reduces the signal of the enzymatic reaction by decreasing the amount of SopÉ-Bla secreted into the extracellular medium.

[2] = test system: SPI1 type III protein secretion system (SipB secretion); experiment: Secondary assay: Type III-dependent protein secretion of the SipB polypeptide by S. enterica (immunoblot); details: Salmonella enterica, read-out: SipB IC50(uM)
Experimental: Secondary assay: Type III-dependent protein secretion of the SipB polypeptide by S. enterica. The SipB protein of S. enterica is another effector of the SPI1 type III protein secretion system from S. enterica. In this cell-based procedure, the Type III-dependent secretion of SipB from the bacterial cytoplasm to the extracellular medium was measured through its reactivity with a cognate mouse monoclonal.
Salmonella enterica cells growing either in the presence or in the absence of inhibitors are induced for the production of SipB. Following an established period of growth the cells are sedimented and the amount of SipB present in the supernatant is quantified with a scanning imager following application of immunoblot techniques. Detection may employ an anti-SipB mouse monoclonal antibody (e.g., obtained from Jorge Galan, SUNY at Stony Brook, N.Y.) followed by treatment with commercially available sheep anti-mouse polyclonal antibody conjugated with horseradish peroxidase. Thereafter the membrane is treated with a peroxidase chemiluminescent substrate and exposed to film for an appropriate exposure time. Inhibition may be measured relative to untreated controls.

[3] = test system: type III protein secretion system of P. aeruginosa PA103 (ExoU secretion); experiment: Tertiary assay: Type III-dependent secretion of ExoU by P. aeruginosa PA103 (SDS-PAGE band quantitation); details: Pseudomonas aeruginosa, ExoU secreted into extracellular medium
Excerpt: Tertiary assay: inhibition of Type III protein secretion of effectors from a Pseudomonas aeruginosa system. Type III protein secretion is used by P. aeruginosa to secrete several essential virulence determinants. One effector of the type III protein secretion system of P. aeruginosa PA103 is the virulence determinants ExoU.
The amount of Type III-dependent secretion of ExoU by P. aeruginosa PA103 can be determined in a cell-based assay by quantification of the 73.9 kDa ExoU protein secreted into the extracellular medium. Such quantitation can be achieved by growing strain PA103 in a deferrated medium in the presence of nitrilotriacetic acid (an inducer of Type III protein secretion in P. aeruginosa) and either in the presence or absence of putative inhibitors. After a prolonged growth period, the cells are sedimented and the supernatants concentrated by ammonium sulfate precipitation. The proteins in the resuspended pellets are separated by electrophoresis on SDS-polyacrylamide gels. After staining gels with Colloidal Blue™, the 73.9 kDa ExoU band is quantitated by scanning through an imager. The effects of inhibitors on the intensity of the ExoU band may be measured relative to that of untreated controls.

With `O=C(Nc1cc(-c2ccc(-c3ccccc3)cc2)cn(C(CSCc2ccccc2)C(=O)O)c1=O)c1ccc(C(F)(F)F)cc1` (stereo in doubt) [Compound 14, (R)-3-Benzylsulfanyl-2-[5-biphenyl-4-yl-2-oxo-3-(4-trifluoromethylbenzoylamino)-2H-pyridi-1-yl]propionic acid] the IC50 [1] was 31.3 µM, the IC50 [2] was 7.1 µM and the IC50 [3] was 31.6 µM.
With `O=C(Nc1cc(-c2ccc(Oc3ccccc3)cc2)cn(C(CSCc2ccccc2)C(=O)O)c1=O)c1ccc(C(F)(F)F)cc1` (stereo in doubt) [Compound 15, (R)-3-Benzylsulfanyl-2-[2-oxo-5-(4-phenoxyphenyl)-3-(4-trifluoromethyl-benzoylamino)-2H-pyridin-1-yl]propionic acid] the IC50 [1] was 9.1 µM, the IC50 [2] was 67.9 µM and the IC50 [3] was 83.4 µM.
For `O=C(Nc1cc(-c2cccc3ccccc23)cn([C@@H](Cc2ccccc2)C(=O)O)c1=O)c1ccc(C(F)(F)F)cc1` [Compound 1, (S)-2-[5-Naphthalen-1-yl-2-oxo-3-(4-trifluoromethylbenzoylamino)-2H-pyridin-1-yl]-3-phenylpropionic acid], the IC50 [1] was 14.4 µM, the IC50 [2] was 82.8 µM and the IC50 [3] was 82.8 µM.
`O=C(Nc1cc(-c2ccc(Oc3ccccc3)cc2)cn([C@@H](Cc2ccccc2)C(=O)O)c1=O)c1ccc(C(F)(F)F)cc1` [Compound 4, (S)-2-[2-Oxo-5-(4-phenoxyphenyl)-3-(4-trifluoromethylbenzoylamino)-2H-pyridin-1-yl]-3-phenylpropionic acid] gave an IC50 [1] of 6.3 µM, an IC50 [2] of 84.7 µM and an IC50 [3] of 84.7 µM.
In the case of `O=Cc1ccc(-c2cc(NC(=O)c3ccc(C(F)(F)F)cc3)c(=O)n([C@@H](Cc3ccccc3)C(=O)O)c2)cc1` [Compound 5, (S)-2-[5-(4-Formylphenyl)-2-oxo-3-(4-trifluoromethylbenzoylamino)-2H-pyridin-1-yl]-3-phenylpropionic acid], the IC50 [1] is reported as 49.9 µM, the IC50 [2] is reported as > 100 µM and the IC50 [3] is reported as > 100 µM.
For `COC(=O)c1ccc(-c2cc(NC(=O)c3ccc(C(F)(F)F)cc3)c(=O)n([C@@H](Cc3ccccc3)C(=O)O)c2)cc1` [Compound 6, (S)-4-[1-(1-Carboxy-2-phenethyl)-6-oxo-5-(4-trifluoromethylbenzoylamino)-1,6-dihydro-pyridin-3-yl]benzoic acid methyl ester], the IC50 [1] was 53.6 µM, the IC50 [2] was > 100 µM and the IC50 [3] was > 100 µM.
In the case of `O=C(Nc1cc(-c2cccc3ccccc23)cn([C@@H](COCc2ccccc2)C(=O)O)c1=O)c1ccc(C(F)(F)F)cc1` [Compound 8, (S)-3-Benzyloxy-2-[5-naphthalen-1-yl-2-oxo-3-(4-trifluoromethylbenzoylamino)-2H-pyridin-1-yl]propionic acid], the IC50 [1] is reported as 29.5 µM, the IC50 [2] is reported as 49.2 µM and the IC50 [3] is reported as > 100 µM.
`O=C(Nc1cc(-c2ccc(Oc3ccccc3)cc2)cn([C@@H](COCc2ccccc2)C(=O)O)c1=O)c1ccc(C(F)(F)F)cc1` [Compound 9, (S)-3-Benzyloxy-2-[2-oxo-5-(4-phenoxyphenyl)-3-(4-trifluoromethyl-benzoylamino)-2H-pyridin-1-yl]propionic acid] was tested, and the IC50 [1] was 10.1 µM, the IC50 [2] was 26.2 µM and the IC50 [3] was > 100 µM.
With `O=C(Nc1cc(-c2ccccc2Oc2ccccc2)cn([C@@H](COCc2ccccc2)C(=O)O)c1=O)c1ccc(C(F)(F)F)cc1` [Compound 10, (S)-3-Benzyloxy-2-[2-oxo-5-(2-phenoxyphenyl)-3-(4-trifluoromethyl-benzoylamino)-2H-pyridin-1-yl]propionic acid] the IC50 [1] was 27 µM, the IC50 [2] was 37.4 µM and the IC50 [3] was > 100 µM.
`O=C(Nc1cc(-c2ccc(Cl)c(Cl)c2)cn(C(Cc2ccc(Cl)cc2)C(=O)O)c1=O)c1ccc(C(F)(F)F)cc1` (stereo not drawn) [Compound 20, 3-(4-Chlorophenyl)-2-[5-(3,4-dichloro-phenyl)-2-oxo-3-(4-trifluoromethyl-benzoylamino)-2H-pyridin-1-yl]propionic acid] was tested, and the IC50 [1] was 2.7 µM, the IC50 [2] was > 100 µM and the IC50 [3] was > 100 µM.
Compound `O=C(Nc1cc(-c2ccc(F)cc2F)cn(C(Cc2ccc(Cl)cc2)C(=O)O)c1=O)c1ccc(C(F)(F)F)cc1` (stereo not drawn) [Compound 21, 3-(4-Chlorophenyl)-2-[5-(2,4-difluorophenyl)-2-oxo-3-(4-trifluoromethyl-benzoylamino)-2H-pyridin-1-yl]propionic acid] has an IC50 [1] of 13.5 µM, an IC50 [2] of 79 µM and an IC50 [3] of 61.2 µM.
In the case of `O=C(Nc1cc(-c2cccc(C(F)(F)F)c2)cn(C(Cc2ccc(Cl)cc2)C(=O)O)c1=O)c1ccc(-c2ccccc2)cc1` (stereo not drawn) [Compound 22, 2-[3-[(Biphenyl-4-carbonyl)amino]-2-oxo-5-(3-trifluoromethylphenyl)-2H-pyridin-1-yl]-3-(4-chlorophenyl)propionic acid], the IC50 [1] is reported as 3.4 µM, the IC50 [2] is reported as 38.3 µM and the IC50 [3] is reported as > 100 µM.
In the case of `O=C(Nc1cc(-c2cccc3c2sc2ccccc23)cn(C(Cc2ccc(Cl)cc2)C(=O)O)c1=O)c1ccc(C(F)(F)F)cc1` (stereo not drawn) [Compound 24, 3-(4-Chlorophenyl)-2-[5-dibenzothiophen-4-yl-2-oxo-3-(4-trifluoromethyl-benzoylamino)-2H-pyridin-1-yl]propionic acid], the IC50 [1] is reported as 1.6 µM, the IC50 [2] is reported as 67.1 µM and the IC50 [3] is reported as 62.4 µM.
With `O=C(Nc1cc(-c2cccc(O)c2)cn(C(Cc2ccc(Cl)cc2)C(=O)O)c1=O)c1ccc(C(F)(F)F)cc1` (stereo not drawn) [Compound 30, 3-(4-Chlorophenyl)-2-[5-(3-hydroxyphenyl)-2-oxo-3-(4-trifluoromethyl-benzoylamino)-2H-pyridin-1-yl]propionic acid] the IC50 [1] was 19.3 µM, the IC50 [2] was 33.4 µM and the IC50 [3] was > 100 µM.
`O=C(Nc1cc(-c2ccc(Cl)cc2)cn(C(Cc2ccc(Cl)cc2)C(=O)O)c1=O)c1ccc(-c2ccccc2)cc1` (stereo not drawn) [Compound 33, 2-[3-[(Biphenyl-4-carbonyl)amino]-5-(4-chlorophenyl)-2-oxo-2H-pyridin-1-yl]-3(4-chlorophenyl)propionic acid] was tested, and the IC50 [1] was 7.6 µM, the IC50 [2] was 39 µM and the IC50 [3] was > 50 µM.
With `O=C(Nc1cc(-c2ccc(Cl)c(Cl)c2)cn(C(Cc2ccc(Cl)cc2)C(=O)O)c1=O)c1ccc(-c2ccccc2)cc1` (stereo not drawn) [Compound 34, 2-[3-[(Biphenyl-4-carbonyl)amino]-5-(3,4-dichlorophenyl)-2-oxo-2H-pyridin-1-yl]-3-(4-chlorophenyl)propionic acid] the IC50 [1] was 8.7 µM, the IC50 [2] was 24.8 µM and the IC50 [3] was > 100 µM.
`O=C(Nc1cc(-c2ccc(F)cc2)cn(C(Cc2ccc(Cl)cc2)C(=O)O)c1=O)c1ccc(-c2ccccc2)cc1` (stereo not drawn) [Compound 35, 2-[3-[(Biphenyl-4-carbonyl)amino]-5-(4-fluorophenyl)-2-oxo-2H-pyridin-1-yl]-3-(4-chlorophenyl)propionic acid] was tested, and the IC50 [1] was 2.3 µM, the IC50 [2] was 58.4 µM and the IC50 [3] was 7.5 µM.
`O=C(Nc1cc(-c2ccc(C(F)(F)F)cc2)cn(C(Cc2ccc(Cl)cc2)C(=O)O)c1=O)c1ccc(-c2ccccc2)cc1` (stereo not drawn) [Compound 38, 2-[3-[(Biphenyl-4-carbonyl)amino]-2-oxo-5-(4-trifluoromethylphenyl)-2H-pyridin-1-yl]-3-(4-chlorophenyl)propionic acid] showed an IC50 [1] of 1.2 µM, an IC50 [2] of 3.1 µM and an IC50 [3] of 21.3 µM.
With `O=C(Nc1cc(-c2ccc(O)cc2)cn(C(Cc2ccc(Cl)cc2)C(=O)O)c1=O)c1ccc(-c2ccccc2)cc1` (stereo not drawn) [Compound 39, 2-[3-[(Biphenyl-4-carbonyl)amino]-5-(4-hydroxyphenyl)-2-oxo-2H-pyridin-1-yl]-3-(4-chlorophenyl)propionic acid] the IC50 [1] was 3.6 µM, the IC50 [2] was > 100 µM and the IC50 [3] was 80.5 µM.
